We go through two molecules from patent US20250090441A1, “ANTI-CARIES PEPTIDES WITH ANTIMICROBIAL AND REMINERALIZING PROPERTIES AND METHODS THEREOF” (THE UNIVERSITY OF HONG KONG, priority 2023, published 2025).

The nature of assay [1]: Remineralizing effects on enamel, chemical pH cycling model (SEM-EDS, Micro-CT, XRD). More on the design: species or system human. The note with it: 160 μM twice daily, pH cycling 8 days, n = 8; for Calcium to phosphate molar ratio: EDS; for Lesion depth / Mineral loss: Micro-CT. The method, then:
Ten enamel slices were cut from extracted sound human molars. Each slice was separated into four blocks. A total of 40 enamel blocks were prepared. Then the surface of the enamel block was half-covered by an acid-resistant varnish. The exposed half was the experimental surface, and the varnished half was the internal control. Before use, all the enamel blocks were sterilized via autoclave (Niu et al. 2021d; Yu et al. 2018).
The pH-cycling procedure (16 h-demineralization at pH 4.5 and 8 h-remineralization at pH 7.0) was performed to enamel blocks for 8 days. The formula for demineralizing/remineralizing solution was employed from a previous study (Yu et al. 2018). The enamel blocks from the same enamel slice were treated twice daily with 160 μM GAPI (GAPI Group), 160 μM gallic acid (GA Group), 160 μM polyphemusin-I (PI Group), and sterile deionized water (Water Group). All enamel blocks after pH cycling were involved in sequent assessments.
The structure of the enamel surface was examined using SEM (n=8 per group) (Niu et al. 2021d). The elemental analysis of enamel surface was conducted using affiliated energy-dispersive X-ray spectroscopy (EDS). The calcium to phosphorus molar ratio was calculated (Niu et al. 2022). The mineral loss and lesion depth on the enamel blocks were assessed using microcomputed tomography (Micro-CT) (1076, SkyScan, Antwerp, Belgium) (n=8 per group) (Niu et al. 2022). The diffraction patterns of the enamel blocks were evaluated using X-ray diffraction analysis (XRD) (Rigaku SmartLab 9 kW, […]) (n=2 per group) (Yu et al. 2018).

Assay [2] deals with Streptococcus mutans, UA159. Briefly: MIC and MBC/MFC test. It counts as cell-based. The note with it: Streptococcus mutans (UA159); μM. The method, then: (§1) The antimicrobial properties of synthesized peptides against bacteria and fungi were evaluated using minimum inhibitory concentration (MIC) and minimum bactericidal/fungicidal concentration (MBC/MFC) tests (Wiegand et al. 2008). The tested species include Streptococcus mutans, UA159; Lacticaseibacillus casei, American Type Culture Collection (ATCC) 334; and Candida albicans, ATCC 90028. A 10 μL aliquot of bacterial culture (10^6 CFU/mL) in brain heart infusion (BHI) broth was added to 100 μL serial two-fold dilutions of experimental solutions. The optical density values at 660 nm were measured after 18 h of incubation. To determine the MBC, 10 μL of bacterial culture was taken from the well of MIC, and wells before and after the well of MIC, and transferred to blood agar. The test protocol for fungi was similar: the culture medium was a Roswell Park Memorial Institute (RPMI) 1640 Medium, the absorbance was measured at 520 nm, and Sabouraud dextrose agar was used for the MFC test. Chlorhexidine and medium were used as the positive and negative controls.

Assay [3] concerns Lacticaseibacillus casei, ATCC 334. The assay is described as follows: MIC and MBC/MFC test. It counts as cell-based. The conditions noted are these: μM. As for the experimental part:
as §1

In assay [4] the test system is Candida albicans, ATCC 90028. It counts as cell-based. The conditions noted are these: μM. As for the experimental part: as §1

Bridges are numbered along the chain shown (N, C = ends). Where no end group is shown, it is not given here.

In the case of `O=C(O)c1cc(O)c(O)c(O)c1` [GA, Gallic Acid], in assay [1], the “Calcium to phosphate molar ratio” value was 1.82 ± 0.08, the Lesion depth is 62 ± 12 μm and the Mineral loss was 0.88 ± 0.24 gHApcm^−3.

On to “Polyphemusin-I (RRWCFRVCYRGFCYRKCR; disulfide 8-13, 4-17) [PI, reference compound]”, for which, in assay [2], the MBC/MFC was determined as 80 and the MIC stood at 20. In addition, in assay [3], the MBC/MFC was 160 and the MIC is 20. In assay [4], this molecule returned an MBC/MFC of 0.6 and an MIC of 0.3. Also, in assay [1], the “Calcium to phosphate molar ratio” value was 1.70 ± 0.06, the Lesion depth is reported as 96 ± 9 μm and the Mineral loss is given as 1.32 ± 0.26 gHApcm^−3.
